Assay results taken from patent publication US8933195B2, “Histone deacetylase inhibitors and synthetic method thereof and use thereof in manufacture of medicaments” (Nanjing Yoko Biomedical R & D Ltd., priority 2011, dated 2015).

Experiments:
HDAC1 = HDAC1 (Homo sapiens, UniProt Q13547); assay: Measurement of biochemical activities of HDAC (fluorescently-labeled acetylated lysine substrate); conditions: read-out: IC50 HDAC1
Method: (§1) 1. Measurement principles: the measurement of biochemical activities of compounds is determined according to the degree of the compounds inhibiting the deacylation of HDAC enzyme. After the fluorescently-labeled substrate containing acetylated lysine side chain reacts with the HDAC enzyme, the fluorogenic substrate is deacetylated. After the deacetylated fluorescently-labeled substrate is cracked by the enzyme, a fluorescent substance is released. The fluorescent substance generates emitting light of 460 nm under the excitation of light of 360 nm.
(§2) 2. Detailed steps: the substrate of HDAC is diluted to […] (the reaction concentration is […]) with a reaction buffer. HDAC enzyme is diluted to a proper concentration. The compounds to be detected in different concentrations are added. The mixture reacts for 30 min at 37. Then the developer with the same volume and twice concentration of the substrate is added into the mixture. The mixture is incubated for 15 min at room temperature. Finally, the reading is measured with a micro plate scanner. The excitation light is 360 nm, the emitting light is 460 nm, and the data is processed with Prime 4 software.

HDAC7 = target: T1, HDAC7 (Homo sapiens, UniProt Q8WUI4); assay: as above
T1 sequence (Q8WUI4 1-952): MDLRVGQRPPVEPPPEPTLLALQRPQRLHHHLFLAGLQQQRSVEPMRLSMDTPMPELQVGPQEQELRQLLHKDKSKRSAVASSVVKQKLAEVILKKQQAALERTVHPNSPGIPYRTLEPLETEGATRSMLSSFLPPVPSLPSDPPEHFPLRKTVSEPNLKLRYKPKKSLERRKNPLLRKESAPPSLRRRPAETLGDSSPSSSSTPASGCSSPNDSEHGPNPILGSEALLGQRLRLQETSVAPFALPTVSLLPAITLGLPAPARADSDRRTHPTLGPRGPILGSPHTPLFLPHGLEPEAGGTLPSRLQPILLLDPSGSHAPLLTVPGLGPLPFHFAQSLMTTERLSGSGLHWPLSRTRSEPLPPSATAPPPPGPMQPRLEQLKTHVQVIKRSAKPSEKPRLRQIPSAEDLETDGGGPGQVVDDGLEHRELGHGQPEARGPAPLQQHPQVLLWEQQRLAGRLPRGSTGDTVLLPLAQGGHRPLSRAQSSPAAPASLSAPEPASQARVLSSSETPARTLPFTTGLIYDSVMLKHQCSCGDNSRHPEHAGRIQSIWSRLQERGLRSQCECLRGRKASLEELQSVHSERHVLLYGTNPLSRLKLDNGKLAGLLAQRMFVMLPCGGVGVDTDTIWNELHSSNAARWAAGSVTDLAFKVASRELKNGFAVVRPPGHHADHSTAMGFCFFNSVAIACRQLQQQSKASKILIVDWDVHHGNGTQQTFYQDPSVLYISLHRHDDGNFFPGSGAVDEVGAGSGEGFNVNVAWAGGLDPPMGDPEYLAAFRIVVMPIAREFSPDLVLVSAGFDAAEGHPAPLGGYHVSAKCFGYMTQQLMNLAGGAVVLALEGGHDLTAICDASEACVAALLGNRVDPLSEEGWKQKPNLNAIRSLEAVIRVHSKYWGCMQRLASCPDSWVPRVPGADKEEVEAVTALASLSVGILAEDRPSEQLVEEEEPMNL
Method: as §1, §2

[1] = system: A549 (human lung cancer cells); assay: MTT cancer cell growth inhibition; type: cell-based; conditions: 72 h
Description: (§3) 1. Experimental principles: the inhibition of cancer cell growth with compounds is detected by an MTT method. The principle of the MTT method is as follows: yellow thiazolyl blue may penetrate through cell membranes and enter into cells, succinate dehydrogenase in living cell mitochondria may reduce exogenous MTT into water-insoluble ianthinus acicular Formazan crystals which deposit in the cells, the crystals can be dissolved with dimethyl sulfoxide (DMSO), the optical density of the crystals is detected with an enzyme-linked immunometric meter at the wavelength of 490 nm/570 nm, and the number of cells can be indirectly reflected.
(§4) 2. Experimental materials: the used cancer cell lines are Hela (human cervical cancer cells), MCF-7 (human breast cancer cells), BGC-823 (human gastric cancer cells), A549 (human lung cancer cells), HT1080 (human fibrosarcoma cells), A431 (human epidermal squamous cell carcinoma cells), HUVEC (human umbilical vein endothelial cells), DU145 (human prostate cancer cells), K562 (human leukemia cells), U937 (human leukemia cells), Pac-1 (human pancreatic cancer cells), and MOLT-4 (human acute lymphoblastic leukemia cells), which are cultured with a DMEM+10% FBS culture medium or a 1640+10% FBS culture medium, respectively.
(§5) Experimental groups: 190 μl cell suspension+10 μl pharmaceuticals in different concentrations (the final concentration is 10^−5-10^−10M)
(§6) Negative control group: 190 μl cell suspension+10 μl 2% DMSO (the final concentration of DMSO is 0.1%)
(§7) a) Cells are inoculated on a 96-pore plate, with 1500 cells and 190 μl for each hole, and cultured overnight in a 5% CO2 incubator at 37.
(§8) b) 10 μl of different pharmaceuticals is added into each hole the next day, with the final concentration of the pharmaceuticals of 10^−5-10^−10M and three parallel holes, and incubated for 72 h in a 5% CO2 incubator at 37.
(§9) c) 20 μl of 5 mg/mL MTT is added into each hole, and incubated for 4 h in a 5% CO2 incubator at 37.
(§10) d) Supernatant is removed. 100 μl of DMSO is added into each hole and vibrated.
(§11) e) The reading is 570 nm. The cell survival rate is calculated.

[2] = system: BGC-823 (human gastric cancer cells); assay: MTT cancer cell growth inhibition; type: cell-based; conditions: 72 h, read-out: GI50 BGC823
Description: as §3, §4, §5, §6, §7, §8, §9, §10, §11

[3] = system: DU145 (human prostate cancer cells); assay: MTT cancer cell growth inhibition; type: cell-based; conditions: DU-145, 72 h
Description: as §3, §4, §5, §6, §7, §8, §9, §10, §11

[4] = system: HT1080 (human fibrosarcoma cells); assay: MTT cancer cell growth inhibition; type: cell-based; conditions: HT-1080, 72 h
Description: as §3, §4, §5, §6, §7, §8, §9, §10, §11

[5] = system: Hela (human cervical cancer cells); assay: MTT cancer cell growth inhibition; type: cell-based; conditions: 72 h
Description: as §3, §4, §5, §6, §7, §8, §9, §10, §11

[6] = system: MCF-7 (human breast cancer cells); assay: MTT cancer cell growth inhibition; type: cell-based; conditions: MCF7, 72 h
Description: as §3, §4, §5, §6, §7, §8, §9, §10, §11

[7] = system: MOLT-4 (human acute lymphoblastic leukemia cells); assay: MTT cancer cell growth inhibition; type: cell-based; conditions: 72 h
Description: as §3, §4, §5, §6, §7, §8, §9, §10, §11

PANC-1 = assay: MTT cancer cell growth inhibition; type: cell-based; conditions: Homo sapiens, 72 h
Description: as §3, §4, §5, §6, §7, §8, §9, §10, §11

[8] = system: U937 (human leukemia cells); assay: MTT cancer cell growth inhibition; type: cell-based; conditions: U-937, 72 h
Description: as §3, §4, §5, §6, §7, §8, §9, §10, §11

Incap = assay: MTT cancer cell growth inhibition; type: cell-based; conditions: 72 h

HDAC1, sequence (Q13547 whole entry, species assumed): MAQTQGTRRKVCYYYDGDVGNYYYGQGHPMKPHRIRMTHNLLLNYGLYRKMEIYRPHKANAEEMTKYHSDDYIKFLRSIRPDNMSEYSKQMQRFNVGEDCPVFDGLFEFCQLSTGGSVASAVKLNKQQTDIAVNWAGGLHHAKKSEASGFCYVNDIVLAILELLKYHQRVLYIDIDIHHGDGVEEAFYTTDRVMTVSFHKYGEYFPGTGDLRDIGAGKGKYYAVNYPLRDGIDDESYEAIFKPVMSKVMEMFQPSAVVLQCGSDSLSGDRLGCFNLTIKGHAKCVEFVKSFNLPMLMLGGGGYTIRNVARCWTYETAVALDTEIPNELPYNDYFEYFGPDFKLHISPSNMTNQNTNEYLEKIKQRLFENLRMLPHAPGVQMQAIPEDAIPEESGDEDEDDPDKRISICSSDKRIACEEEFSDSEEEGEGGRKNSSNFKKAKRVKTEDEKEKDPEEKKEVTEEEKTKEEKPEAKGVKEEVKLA

Row | Compound | IC50 (HDAC1) | IC50 HDAC7 (HDAC7) | GI50 [1] | GI50 [2] | GI50 [3] | GI50 [4] | GI50 [5] | GI50 [6] | GI50 [7] | GI50 (PANC-1) | GI50 [8] | GI50 (Incap)
1 | C/C=C1\NC(=O)c2csc(n2)CNC(=O)C[C@@H](/C=C/CCSC(=O)CCCCCCC)OC(=O)CNC1=O [Compound 1-1] | < 100 nM | no activity | 90 nM | 100 nM | 8 nM | 50 nM | 400 nM | 90 nM | 9 nM | 300 nM | 7 nM | 50 nM
2 | C/C=C1\NC(=O)c2csc(n2)CNC(=O)C[C@@H](/C=C/CCSC(=O)CCCCCCC)OC(=O)[C@H](CC)NC1=O [Compound 1-2] | < 190 nM | no activity | 300 nM | 20 nM | 4 nM | 100 nM | 100 nM | 50 nM | 30 nM | 200 nM | 4 nM | 70 nM
3 | C/C=C1\NC(=O)c2csc(n2)CNC(=O)C[C@@H](/C=C/CCSC(=O)CCCCCCC)OC(=O)[C@@H](C)NC1=O [Compound 1-5] | < 10000 nM | no activity | 600 nM | 100 nM | 100 nM | 1000 nM | 2000 nM | 800 nM | 1000 nM | 3000 nM | 100 nM | 600 nM
4 | C/C=C1\NC(=O)c2csc(n2)CNC(=O)C[C@@H](/C=C/CCSC(=O)CCCCCCC)OC(=O)[C@H](Cc2cccc3ccccc23)NC1=O [Compound 1-9] | < 10000 nM | no activity | 30 nM | 50 nM | 3 nM | 40 nM | 50 nM | 50 nM | 10 nM | 600 nM | 5 nM | 30 nM
5 | C/C=C1\NC(=O)c2csc(n2)CNC(=O)C[C@@H](/C=C/CCSC(=O)CCCCCCC)OC(=O)[C@H](CCSC)NC1=O [Compound 1-10] | < 100 nM | no activity | 100 nM | 200 nM | 10 nM | 100 nM | 100 nM | 1 nM | 20 nM | 1300 nM | 20 nM | 80 nM
6 | C/C=C1\NC(=O)c2csc(n2)CNC(=O)C[C@@H](/C=C/CCSC(=O)CCCCCCC)OC(=O)[C@H](CC(C)C)NC1=O [Compound 1-11] | < 100 nM | no activity | 5090 nM | 160 nM | 6 nM | 80 nM | 100 nM | 90 nM | 10 nM | 800 nM | 9 nM | 30 nM
7 | C/C=C1\NC(=O)c2csc(n2)CNC(=O)C[C@@H](/C=C/CCSC(=O)CCCCCCC)OC(=O)[C@H](CSCC)NC1=O [Compound 1-12] | < 100 nM | no activity | 1200 nM | 60 nM | 100 nM | 1000 nM | 900 nM | 800 nM | 100 nM | 6000 nM | 100 nM | 300 nM
8 | C/C=C1\NC(=O)c2coc(n2)CNC(=O)C[C@@H](/C=C/CCSC(=O)CCCCCCC)OC(=O)[C@H](C(C)C)NC1=O [Compound 2-1] | < 100 nM | no activity | 900 nM | 5000 nM | 50 nM | 4100 nM | 200 nM | 500 nM | 100 nM | 2060 nM | 1300 nM | 2010 nM
9 | C/C=C1\NC(=O)C2N=C(CNC(=O)C[C@@H](/C=C/CCSC(=O)CCCCCCC)OC(=O)[C@H](C(C)C)NC1=O)O[C@@H]2C (stereo partly drawn) [Compound 2-2] | < 10000 nM | no activity | 2000 nM | 1600 nM | 56500 nM | 4500 nM | 600 nM | 2300 nM | 26200 nM | 600 nM | 10200 nM | 23600 nM
